Experimental findings from PubChem BioAssay AID2740 (NMMLSC, 2010) are described below.

Calls of active or inactive are those of the source.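 The calls were made as follows: active = compounds whose fitted half-maximal concentration for changing the GFP signal is at or below a set limit; inactive = the rest.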

System in the first experiment: not listed separately
The experiment is described as follows: TOR pathway RPL19A-GFP modulators, concentration series – cell-based, S. cerevisiae, flow cytometry, MLPCN hits, dose response (AID 2740).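 As to GFP fluorescence, lower = active: background is signal of the same compound in parental non-GFP s288c yeast.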 To be noted: S. cerevisiae RPL19A-GFP strain, flow cytometry fluorescence, 3 h; at 33 µM (top of the series). Background: A flow cytometer gives signals particle by particle.
In the case of `O=C(Nc1ccc(N2CCOCC2)cc1)C1CCN(S(=O)(=O)c2ccc3c(c2)OCCO3)CC1`, the GFP fluorescence, lower = active (kMESF (background-subtracted)) is 34.9 (inactive). Same read-out and setting: the result for `Cc1ccc(O)c(N=Nc2nccs2)c1` reads 32.1 (inactive); that for `CCCc1cc(=O)oc2cc(C)cc(OCC(=O)NC3CC3)c12`, 39 (inactive); that for `O=C(CCc1ccccc1)NNC(=S)NC(=O)c1ccccc1`, 44.5 (inactive). As for `Cc1cccc(N2C(=O)C(Cl)=C(Nc3c(C)n(C)n(-c4ccccc4)c3=O)C2=O)c1C`, the GFP fluorescence, lower = active (kMESF (background-subtracted)) is 41.7 (inactive). Still for that read-out and setting: as for `CC(OC(=O)c1ccco1)C(=O)Nc1nc(-c2ccccc2)cs1` (centres undefined), the figure is 37.1 (inactive); as for `O=c1c(-c2ccc(Cl)cc2)[n+]([O-])c2ccccc2n1O`, 30.9 (inactive). As to `Cc1ccc2c(c1)c(/C=C/c1cc[n+](C)cc1)c(C)n2C`, the GFP fluorescence, lower = active (kMESF (background-subtracted)) is 40.7 (inactive). `Cc1ccc(N=Nc2ccc(O)c3ncccc23)cc1`: the GFP fluorescence, lower = active (kMESF (background-subtracted)) is 39.8 (inactive). Still for that read-out and setting: as for `C/C(=N\NC(=O)c1cc2ccccc2cc1O)c1ccccn1`, the figure is 45.5 (inactive); as for `Cc1ccc(N2C(=O)C(Cl)=C(Nc3c(C)n(C)n(-c4ccccc4)c3=O)C2=O)cc1`, 39 (inactive); as for `COc1ccc(NC(=O)/C(C#N)=C/c2ncc([N+](=O)[O-])n2C)c(OC)c1`, 41.5 (inactive).

Take `Nc1ccccc1C#CC(=O)c1ccccc1`: the GFP fluorescence, lower = active (kMESF (background-subtracted)) was 21 (inactive).

`O=S(=O)(CCN(CCS(=O)(=O)C(F)(F)F)CC1CCCO1)C(F)(F)F` (centres undefined): the GFP fluorescence, lower = active (kMESF (background-subtracted)) is 27.1 (inactive). Same read-out and setting: the result for `CCOc1ccc(C(Nc2cccnc2)c2cc(Cl)c3cccnc3c2O)cc1` (centres undefined) reads 28.3 (inactive); that for `CCc1nc2ccccc2c(=O)n1NC(=O)c1c(O)c2cccc3c2n(c1=O)CCC3`, 25.5 (inactive).

`O=C(/C=C/Sc1ncn[nH]1)c1ccc(Cl)cc1`: the GFP fluorescence, lower = active (kMESF (background-subtracted)) is 29 (inactive). On the same count and under the same terms, the result for `COc1cccc(/C=N/Nc2ccc([N+](=O)[O-])cn2)c1O` reads 42.1 (inactive); that for `COc1ccc(C(=O)/C=C2/C(=O)Nc3ccccc32)c(OC)c1`, 37.3 (inactive). Still for that read-out and setting: as for `Cc1ccccc1C(=O)NNC(=S)NC(=O)c1ccc(Cl)cc1Cl`, the figure is 45.9 (inactive); as for `COc1ccc(C(=O)NC(=S)NNC(=O)c2cnccn2)cc1`, 35.4 (inactive); as for `O=C(Nc1nnc(-c2ccc(Cl)cc2)o1)c1ccccc1Br`, 37 (inactive). Turning to `COC(=O)CCC(=O)OC1(C)C(=O)C2=COC(c3ccc(OC)cc3)=CC2=C(Br)C1=O` (centres undefined), the GFP fluorescence, lower = active (kMESF (background-subtracted)) was 32.8 (inactive). Consider `Cc1cc(NC(=O)c2cccnc2Cl)ccc1NC(=O)c1cc2ccccc2o1`, for which the GFP fluorescence, lower = active (kMESF (background-subtracted)) is 39.6 (inactive).

Turning to `O=C(Nc1ccc(O)cc1)C1CCCN1S(=O)(=O)c1ccc(F)cc1` (centres undefined), the GFP fluorescence, lower = active (kMESF (background-subtracted)) is 45 (inactive).

For the next experiment, the system named is S. cerevisiae RPL19A-GFP strain, flow cytometry fluorescence, 3 h. The description is as above.
Conditions: not given
On to `O=[N+]([O-])c1cc(Cl)c2cccnc2c1O`, for which the EC50 (as a rule, the concentration that produces a half-maximal response) was 13 µM.

`CC(C)(C)C(=O)C(Cl)C(=O)Nc1ccccc1` (centres undefined): the EC50 is 11.2 µM. The same measure, in the same setting: as for `O=C1C=C(c2ccccc2)C(=O)N1Nc1ccccc1`, the figure is 3.91 µM; as for `CCOC(=O)c1cc(-c2ccc(/C=C3/C(=O)NC(=O)C(C#N)=C3C)o2)ccc1Cl`, 3.35 µM; as for `C/C(=N\NC(=O)c1cccc(Br)c1)c1ccccn1`, 20.8 µM. As to `CCOC(=O)COc1ccc2ccccc2c1/C=C/[N+](=O)[O-]`, the concentration giving a half-maximal response (EC50) is 5.36 µM. On the same count and under the same terms, as for `Cc1ccc(NN2C(=O)C=C(c3ccc(Cl)cc3)C2=O)cc1`, the figure is 1.28 µM. On the same count and under the same terms, as for `CCOC(=O)c1c(C)oc2c1c(C(c1cccnc1)N1CCOCC1)c(O)c1ccccc12` (centres undefined), the figure is 13.7 µM; as for `COc1cccc2cc(-c3nc4ccccc4o3)c(=O)oc12`, 1.11 µM. On to `O=C(/C=C/c1cccc(Cl)c1)c1nc2ccccc2[nH]1`, for which the concentration for a half-maximal effect (EC50) was 4.06 µM.

Turning to `Cn1ncc2c(O/N=C(\N)c3ccc(C(C)(C)C)cc3)ncnc21`, the concentration giving a half-maximal response (EC50) was 13 µM. Still for that read-out and setting: as for `COc1ccc(N2C(=O)/C(=C/c3cccs3)C(=O)NC2=S)cc1`, the figure is 7.77 µM; as for `Cc1ccc(/C=C2/C(=O)ON=C2c2ccccc2)o1`, 11.9 µM; as for `Cc1ccc(NC(=O)c2cc(N3C(=O)C=CC3=O)ccc2Cl)cc1C`, 7.49 µM. The same measure, in the same setting: as for `COc1cccc2sc(Nc3nc(-c4ccccn4)cs3)nc12`, the figure is 3.82 µM; as for `O=[N+]([O-])c1ccc(S(=O)(=O)c2cccc(C(F)(F)F)c2)nc1`, 11.8 µM; as for `C#CCOCCOCCOCCNc1nc(N2CCN(C(=O)CCCCCCCCCCNC(=O)[C@H](CCCCN)n3cc(C)nn3)CC2)nc(N2CCN(C(=O)CCCCCCCCCCNC(=O)[C@H](CCCN=C(N)N)n3cc(C[C@@H](C)CC)nn3)CC2)n1`, 10.7 µM.

Consider `Cc1ccc(NC(=O)c2cc(N3C(=O)C=CC3=O)ccc2N2CCOCC2)cc1Cl`, for which the half-maximal effective concentration (EC50) was 4.02 µM. Turning to `O=C(C#Cc1ccccc1)c1ccco1`, the concentration for a half-maximal effect (EC50) is 25.6 µM. For `O=[N+]([O-])c1cc(Cl)cc(/C=N\Nc2ccccn2)c1O`, the 50% effective concentration (EC50) was 8.02 µM. Still for that read-out and setting: the result for `O=C1Oc2ccccc2C(=O)/C1=C/c1ccccc1O` reads 11 µM; that for `C#CCOCCOCCOCCNc1nc(N2CCN(C(=O)CCCCCCCCCCNC(=O)[C@H](CCCCN)n3cc(CCO)nn3)CC2)nc(N2CCN(C(=O)CCCCCCCCCCNC(=O)[C@H](CCCCN)n3cc(C[C@@H](C)CC)nn3)CC2)n1`, 10.1 µM. Same read-out and setting: as for `Cc1ccc(C(=O)O)cc1N=Cc1cc(Br)cc(Br)c1O`, the figure is 11.8 µM; as for `CNC(CC(=O)c1ccc([N+](=O)[O-])cc1)C(Cl)(Cl)Cl` (centres undefined), 6.58 µM; as for `O=C1C=CC(=O)N1c1ccc(Sc2ccc([N+](=O)[O-])cc2)cc1`, 10.2 µM. Still for that read-out and setting: as for `N/C(Cc1ccc(Cl)cc1)=N\OC(=O)c1ccccc1`, the figure is 8.02 µM; as for `CN1CCN(C(=O)c2cc(COc3c(F)cccc3F)on2)CC1c1ccccc1` (centres undefined), 8.03 µM; as for `CCN1/C(=C/C(C)=C/c2sc3ccccc3[n+]2CC)Sc2ccccc21`, 11.3 µM. As for `O=C1NC(=O)N(Cc2ccc(F)cc2)C(=O)/C1=C/c1cccs1`, the half-maximal effective concentration (EC50) is 4.65 µM. Take `O=C(C#Cc1ccccc1)c1cccc([N+](=O)[O-])c1`: the EC50 was 7.47 µM. Still for that read-out and setting: the result for `CC(Oc1ccc(Br)cc1)C(=O)Nc1nc(-c2ccccn2)cs1` (centres undefined) reads 20.5 µM; that for `ClC(Cl)(c1nnnn1-c1ccccc1)c1nnnn1-c1ccccc1`, 4.62 µM.

In the case of `CCOc1ccc(N/N=C(/C#N)C(N)=O)cc1`, the EC50 is 4.55 µM. For `O=[N+]([O-])c1ccc(O)c(/C=N/Nc2ccccn2)c1`, the EC50 was 16.6 µM.

Regarding `Cc1ccc(S(=O)(=O)c2ccc([N+](=O)[O-])cn2)cc1`, the concentration for a half-maximal effect (EC50) was 12.9 µM.

For the compound `CCCCCCCCn1sccc1=O`, the EC50 is 11.9 µM. On the same count and under the same terms, as for `Cn1ncc(S(=O)(=O)Cc2ccccc2)c(Cl)c1=O`, the figure is 14.9 µM; as for `CC(=O)SC(C[N+](=O)[O-])c1cn(C(C)=O)c2ccccc12` (centres undefined), 12.4 µM.

As to `O=c1cc(CSc2ccc(Cl)cc2)nc(-c2ccccn2)[nH]1`, the EC50 is 12.9 µM.

As for `CCCCS(=O)(=O)/C=C\C=C/S(=O)(=O)CCCC`, the EC50 is 12.5 µM.

Turning to `O=C1C=CC(=O)N1c1cccc(-c2ccccc2)c1`, the half-maximal effective concentration (EC50) is 2.7 µM. On the same count and under the same terms, as for `CCn1c(=O)c(C(=O)Nc2nc3ccccc3[nH]2)c(O)c2ccccc21`, the figure is 3.3 µM; as for `C[C@@H]1C[C@@H]([C@H](O)CC2CC(=O)NC(=O)C2)C(=O)[C@@H](C)C1`, 0.644 µM. Still for that read-out and setting: as for `C#CCOCCOCCOCCNc1nc(N2CCN(C(=O)CCCCCCCCCCNC(=O)[C@@H](CCC(=O)O)n3cc(CCCCCN)nn3)CC2)nc(N2CCN(C(=O)CCCCCCCCCCNC(=O)[C@H](CCCCN)n3cc(C[C@@H](C)CC)nn3)CC2)n1`, the figure is 11 µM; as for `COc1ccc2c(c1)c1nnc(SC)nc1n2C`, 0.681 µM. On the same count and under the same terms, the result for `O=C1c2sc3nc4ccccc4n3c2C(=O)N1c1ccccc1Cl` reads 19 µM; that for `CSc1nnc2c3cc(F)ccc3n(C)c2n1`, 1.19 µM; that for `CC(=O)Nc1ncnc2c1c(-c1ccc(Cl)cc1)nn2C(C)(C)C`, 6.07 µM. `O=C(Nc1ccc(Cl)cc1Cl)c1cccc(N2C(=O)C=CC2=O)c1`: the EC50 is 9.64 µM. For `CC1=NNC(=O)/C1=C\c1cn(-c2ccccc2)nc1-c1cccs1`, the EC50 is 3.14 µM. Still for that read-out and setting: as for `O=C1NC(=O)C(=Cc2ccc(-c3ccc(Cl)cc3)o2)C(=O)N1`, the figure is 6.81 µM; as for `O=[N+]([O-])c1cc(S(=O)(=O)C(F)(F)F)ccc1Sc1nc2ccccc2s1`, 14.4 µM; as for `COc1ccc(N/N=C(\C#N)C(N)=O)cc1`, 2.96 µM. Same read-out and setting: as for `Cc1ccc(/C=C/C(=O)c2ccccc(=O)c2O)c(C)c1`, the figure is 11.3 µM. The same measure, in the same setting: as for `Cc1nn2c(-c3ccncc3)nnc2c2ccccc12`, the figure is 3.29 µM. As for `CCOc1ccc(N2C(=O)/C(=C\c3cccs3)C(=O)NC2=S)cc1`, the EC50 was 5.66 µM.

As for `Cc1ccc(/C=C2\C(=O)NC(=S)N(c3ccccc3F)C2=O)s1`, the 50% effective concentration (EC50) is 1.36 µM. Still for that read-out and setting: the result for `Cc1ccc2nc(Cl)c3nnnn3c2c1` reads 5.33 µM. Same read-out and setting: the result for `N/C(Cc1ccc(Cl)cc1Cl)=N\OC(=O)c1cccs1` reads 12.9 µM; that for `Cc1cccc(C)c1NC(=O)C(Cl)C(=O)c1ccccc1` (centres undefined), 1.9 µM; that for `O=C(Nc1ccc(Cl)cc1)ON=C1CCCC1`, 10.8 µM. As to `CCOC(=O)c1c(C)oc2c1c(C(c1ccncc1)N1CCOCC1)c(O)c1ccccc12` (centres undefined), the EC50 is 11.8 µM.

Take `O=C(/C=C/c1ccccn1)c1ccc(Br)cc1O`: the half-maximal effective concentration (EC50) is 26.8 µM. The same measure, in the same setting: the result for `CC(C)(C)n1nc(-c2ccc(F)cc2)c2c(N)ncnc21` reads 0.98 µM.
